According to PMC8652888, “Angiogenesis, Anti-Tumor, and Anti-Metastatic Activity of Novel α-Substituted Hetero-Aromatic Chalcone Hybrids as Inhibitors of Microtubule Polymerization” (Frontiers in Chemistry, 2021):

Legend:
HepG2 = test: Antiproliferative activity, SRB assay; format: cell-based, human; details: Homo sapiens, HepG2; 72 h, triplicate, mean ± SD; read-out: IC50 ± SD, HepG2
Experimental: (§1) The synthesized compounds were first evaluated for their cytotoxic effect on MCF-7 (human breast adenocarcinoma), U937 (histiocytic lymphoma cancer), HepG2 (human liver cancer) cells, and MGC-803 (human gastric cancer) using the SRB and CCK-8 assay. As reference compounds CA-4 and colchicine were included.
(§2) The primary tumor cells were purchased from a professional biomedical company. First, the primary tumor cells were incubated in a cell culture incubator at 37°C and 5% CO2. After the cell fusion reached 85%–95%, subculture was performed, and the tumor cells obtained at this time were used for subsequent related experiments. The CCK-8 method was used to inhibit the proliferation of U937 tumor cells, and the SRB method was used to inhibit the proliferation of MCF7 and HepG2 tumor cells.
(§3) Cells were distributed into 96-well plates with a density of 3 × 10^3–4 × 10^3 cells per well and incubated for 24 h in a 5% CO2 incubator at 37°C, followed by treatment with study compounds at different concentrations at 37°C for 72 h. One hundred microliters of 10% (w/v) trichloroacetic acid was added to each well, fixed at 4°C for 30 min, and dried at 65°C. Then 100 μl of 0.4% SRB was added to each well and stained on a shaker for 20 min at room temperature. The excess dye solution was washed with newly prepared 1% glacial acetic acid and dried at 65°C. One hundred fifty microliters of 10 mM unbuffered Trisbase was added to each well of the plate and shaken for 5 min to dissolve the dye. The microplate reader measured the optical density (OD) at a wavelength of 560 nm.

U937 = test: Antiproliferative activity, CCK-8 assay; format: cell-based; details: Homo sapiens, U-937; 72 h, triplicate, mean ± SD; read-out: IC50 ± SD, U937
Experimental: as §1, §2
(§4) The cells in the logarithmic growth phase were seeded in a 96-well plate at 8,000/well, and the drug-containing medium and cell suspension were added to the well. Three wells were added with the blank medium as the blank group. The 96-well plate was incubated for 72 h in a 37°C, 5% CO2 incubator. The 10 μl of CCK-8 dye solution was added to each well, and the incubation continued for 3–4 h.

MCF-7 = test: Antiproliferative activity, SRB assay; format: cell-based, human; details: Homo sapiens, MCF7, 72 h, 72 h, triplicate, mean ± SD; read-out: IC50 ± SD, MCF-7;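 further: proliferation of MCF7 cells quantified by sulforhodamine B staining, with optical density read at 560 nm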
MGC-803 = test: Antiproliferative activity (SRB and CCK-8 assay); format: cell-based; details: Homo sapiens, triplicate, mean ± SD, read-out: IC50 ± SD, MGC-803
Text: as §1

[1] = system: MCF-7, U937, HepG2 and MGC-803 cells; test: Antiproliferative activity, cancer cell panel (text summaries); format: cell-based, human; details: Homo sapiens; U937, MCF-7, HepG2, MGC-803; read-out: IC50 against four cancer cell lines
Experimental: as §1, §2, §3, §4

IC50 (HepG2) [µM] | IC50 (U937) [µM] | IC50 (MCF-7) [µM] | IC50 (MGC-803) [µM] | IC50 [1] [µM] | melting point [°C] | Structure (SMILES)
> 20 | > 20 | > 20 | > 20 | > 20 | 218.7 to 220.3 | COC(=O)c1ccc2[nH]cc(/C=C/C(=O)c3cc(OC)c(OC)c(OC)c3)c2c1 [Compound 6e, methyl(E)-3[3-oxo-3-(3,4,5-trimethoxyphenyl)prop-1-en-1-yl]-1H-indole-5-carboxylate]
> 20 | > 20 | > 20 | > 20 | > 20 | 221.7 to 223.6 | COC(=O)c1cccc2[nH]cc(/C=C/C(=O)c3cc(OC)c(OC)c(OC)c3)c12 [Compound 6d, methyl(E)-3[3-oxo-3-(3,4,5-trimethoxyphenyl)prop-1-en-1-yl]-1H-indole-4-carboxylate]
